Measured values reported in patent US20130345392A1, “EDN3-LIKE PEPTIDES AND USES THEREOF” (Pfizer Inc, priority 2011, published 2013).
“Also recorded” adds a separate entry of the source. Bridges are numbered along the chain shown (N, C = ends). Where no end group is shown, it is not given here.

Columns and labels:
[1] = biological target: T1, human endothelin ETB receptor (Homo sapiens, UniProt P24530); assay: Radioligand binding, human endothelin ETB receptor in transfected CHO cell membranes; conditions: tested at a concentration of up to 3 μM (p>0.05)
T1 construct: expressed in transfected cells; host or cells: CHO cells
T1 sequence (P24530 27-442): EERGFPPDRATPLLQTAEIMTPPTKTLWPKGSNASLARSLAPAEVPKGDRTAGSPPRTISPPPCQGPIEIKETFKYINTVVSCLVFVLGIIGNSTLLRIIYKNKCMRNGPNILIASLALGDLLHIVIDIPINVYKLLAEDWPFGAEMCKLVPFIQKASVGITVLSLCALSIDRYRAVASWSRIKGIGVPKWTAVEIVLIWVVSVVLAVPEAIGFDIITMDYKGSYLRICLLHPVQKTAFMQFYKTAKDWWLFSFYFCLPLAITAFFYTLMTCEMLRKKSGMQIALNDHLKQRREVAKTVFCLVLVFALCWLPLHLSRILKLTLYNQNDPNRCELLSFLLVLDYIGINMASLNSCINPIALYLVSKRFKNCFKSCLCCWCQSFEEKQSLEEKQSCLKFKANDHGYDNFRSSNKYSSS
Description: To evaluate the affinity of EDN3 97-140 for the agonist site of the human endothelin ETB receptor in transfected CHO cells, radioligand binding was used. […] Following incubation, the samples were filtered rapidly under vacuum through glass fiber filters (GF/B, Packard) presoaked with 0.1% BSA and rinsed several times with an ice-cold buffer containing 50 mM Tris-HCl and 150 mM NaCl using a 96-sample cell harvester (Unifilter, Packard). The filters were dried then counted for radioactivity in a scintillation counter (Topcount, Packard) using a scintillation cocktail (Microscint 0, Packard).

C57BL6J male mice = assay: Indirect calorimetry and telemetry in mice after injection into the preoptic area; assay type: in vivo, mouse; conditions: 2.5 nmol by direct injection into the POA
Description: C57BL6J male mice (3-4 months old, 25-30 g, 6 mice per group) were purchased from Harlan. […] Energy expenditure measures (VO2, VCO2 and heat formation ((3.815+1.232*RER)*VO2 (in liters)) were corrected for estimated effective metabolic mass per Kleiber's power function (Kleiber, 1947). Mice undergoing indirect calorimetry were acclimated to the respiratory chambers for 3-4 days before the onset of study. Data were recorded under ambient room temperature clamped at 25° C., beginning from the onset of the light cycle (12:12 hour light-dark cycle; lights on at 6:00 a.m.) for 3 days. Treatments were administered directly to the POA via an implanted cannula (anterior from bregma: 0.3 mm, midline, ventral: 3.8 mm, cannula 26 GA, 10 mm length) using an injector (33 GA, protruding 0.4 mm beyond the tip of the cannula, total length 10.4 mm) connected to plastic tubing and a microsyringe (10 μL) in a volume of 0.5 μL over a period of 5 minutes to allow diffusion. […]

ob/ob mice = assay: Glucose tolerance (IPGTT) in ob/ob mice; assay type: in vivo, mouse; conditions: for reduction in glucose: overnight fast, 0.6 mg/kg glucose challenge i.p., mean±SEM n=8
Description: (§1) DIO mice fed on a high fat diet for 14 weeks and ob/ob mice were purchased from Jackson Labs. Ob/Ob mice and DIO mice used in all studies were used at 7 and 18 weeks old, respectively. After an overnight fast, ob/ob and DIO mice were injected with vehicle (20 mM Na acetate/140 mM NaCl) or EDN3 97-140 (0.1, 1 or 10 mg/kg i.p.) followed by a […] (i.p.) or 2 g/kg (i.p.) D-glucose challenge in ob/ob and DIO mice respectively. Plasma glucose levels were determined from mouse tail vein bleeds at 0, 15, 30, 60, and 120 minutes after compound injection and measured using an automatic glucometer (Alpha-Trak). To determine the acute insulin release, plasma insulin levels were measured by using an ELISA kit with mouse insulin as a standard (Meso Scale Discovery). Results were expressed as percentages of vehicle concentrations and statistical significance determined by 2-way ANOVA repeated measures.

DIO mice = assay: Glucose tolerance (IPGTT) in DIO mice; assay type: in vivo, mouse; conditions: for decrease of glucose excursion: 2 g/kg glucose challenge i.p., mean±SEM n=8
Description: as §1

3T3L1 adipocyte = 3T3L1 adipocyte basal glucose uptake; assay type: cell-based; conditions: 10 μM (data not shown)
INS1 cells = assay: Glucose-stimulated insulin release from INS1 cells; assay type: cell-based; conditions: 10 μM (data not shown)
Insulin tolerance test = assay type: in vivo; conditions: 1 and 10 mg/kg i.p., acute administration (data not shown)
GLUTag cells = conditions: GLUTag cells

binding to ETB receptor [1]: failed to bind
EC50 (GLUTag cells; read-out: EC50, GLP-1 release GLUTag assay, 15 mM glucose): 369 nM
Substance: CTCFTYKDKECVYYCHLDIIWINTPEQTVPYGLSNYRESLRGKR-NH2 (disulfide 1-15, 3-11) [EDN3 97-140]
locomotor activity (C57BL6J male mice): transient spike of increased locomotor activity; also recorded: transient increase in locomotor activity
reduction in glucose (ob/ob mice; 1 mg/kg i.p. single bolus): 35.1±13%
reduction in glucose (ob/ob mice; 10 mg/kg i.p. single bolus): 31.3±6.9%
glucose excursion curve in response to an IPGTT (ob/ob mice; acute peripheral administration 0.1, 1 or 10 mg/kg i.p.): decreased
insulin secretion during IPGTT (ob/ob mice; i.p., trend towards an increase at 30 minutes at 10 mg/kg (p>0.05), 10 mg/kg): not statistically significant; also recorded: no statistically significant effect on insulin
decrease of glucose excursion (DIO mice; DIO mice, 0.1 mg/kg i.p.): 19±7.2%
decrease of glucose excursion (DIO mice; DIO mice, 1 mg/kg i.p.): 20.7±8.7%
insulin during IPGTT (DIO mice; DIO mice, i.p. (p>0.05)): no statistically significant effect on insulin
glucose excursion curve in response to an IPGTT (DIO mice; diet induced obese mice, acute peripheral administration 0.1, 1 or 10 mg/kg i.p.): decreased
effect on 3T3L1 adipocyte basal glucose uptake (3T3L1 adipocyte): no effect
modulation of glucose-stimulated insulin release from INS1 cells (INS1 cells): failed to modulate
effect on insulin tolerance test (Insulin tolerance test): no effect
stimulated GLP-1 secretion (GLUTag cells; 1 μM, vehicle pre-treatment): 327±59 % of vehicle
GLP-1 secretion from GLUTag cells, result in words (GLUTag cells; endothelin-3 at highest concentration 10 μM): most potent peptide tested
